Data taken from the NIST ThermoML archive (doi:10.1021/je200811n).

Settings: Hot wire method

F/C=C/C(F)(F)F [trans-1,3,3,3-tetrafluoropropene]
Settings	thermal conductivity [W/m/K]
262.32 K, 98 kPa, Gas	0.01085
262.32 K, 15456 kPa, Liquid	0.09473
262.36 K, 10416 kPa, Liquid	0.09243
262.42 K, 488 kPa, Liquid	0.08745
262.42 K, 5301 kPa, Liquid	0.08997
262.42 K, 21223 kPa, Liquid	0.09713
262.45 K, 15452 kPa, Liquid	0.09456
262.49 K, 10417 kPa, Liquid	0.09221
262.56 K, 488 kPa, Liquid	0.08718
262.56 K, 5298 kPa, Liquid	0.08972
262.61 K, 123 kPa, Gas	0.01085
262.62 K, 107 kPa, Gas	0.01086
262.63 K, 98 kPa, Gas	0.01084
262.65 K, 80 kPa, Gas	0.01085
262.67 K, 97 kPa, Gas	0.01087
262.79 K, 21214 kPa, Liquid	0.0972
262.84 K, 15455 kPa, Liquid	0.09447
262.89 K, 10416 kPa, Liquid	0.0922
262.96 K, 5304 kPa, Liquid	0.0897
262.96 K, 21225 kPa, Liquid	0.09681
262.98 K, 488 kPa, Liquid	0.08717
262.99 K, 121 kPa, Gas	0.0108
263 K, 15446 kPa, Liquid	0.0942
263.01 K, 106 kPa, Gas	0.01081
263.02 K, 97 kPa, Gas	0.01085
263.04 K, 80 kPa, Gas	0.01079
263.05 K, 98 kPa, Gas	0.01086
263.06 K, 10416 kPa, Liquid	0.09188
263.13 K, 5299 kPa, Liquid	0.08937
263.16 K, 488 kPa, Liquid	0.08692
263.36 K, 21219 kPa, Liquid	0.09681
263.39 K, 119 kPa, Gas	0.01089
263.4 K, 15447 kPa, Liquid	0.0942
263.42 K, 104 kPa, Gas	0.01088
263.43 K, 97 kPa, Gas	0.01089
263.45 K, 80 kPa, Gas	0.01089
263.45 K, 98 kPa, Gas	0.01081
263.48 K, 10415 kPa, Liquid	0.09186
263.55 K, 21219 kPa, Liquid	0.09652
263.56 K, 5297 kPa, Liquid	0.08933
263.59 K, 488 kPa, Liquid	0.08681
263.6 K, 15455 kPa, Liquid	0.09401
263.68 K, 10416 kPa, Liquid	0.09153
263.77 K, 5291 kPa, Liquid	0.08901
263.8 K, 488 kPa, Liquid	0.08652
272.01 K, 173 kPa, Gas	0.01193
272.22 K, 93 kPa, Gas	0.01165
272.23 K, 118 kPa, Gas	0.01168
272.23 K, 164 kPa, Gas	0.01178
272.24 K, 170 kPa, Gas	0.01181
272.27 K, 80 kPa, Gas	0.01132
272.44 K, 180 kPa, Gas	0.01146
272.47 K, 93 kPa, Gas	0.01156
272.47 K, 117 kPa, Gas	0.01157
272.47 K, 162 kPa, Gas	0.01169
272.51 K, 78 kPa, Gas	0.01132
272.73 K, 92 kPa, Gas	0.01149
272.73 K, 159 kPa, Gas	0.01161
272.74 K, 116 kPa, Gas	0.0115
272.74 K, 177 kPa, Gas	0.01151
272.76 K, 76 kPa, Gas	0.01132
272.99 K, 157 kPa, Gas	0.01156
273 K, 90 kPa, Gas	0.01144
273.01 K, 114 kPa, Gas	0.01146
273.03 K, 74 kPa, Gas	0.01133
273.1 K, 175 kPa, Gas	0.01153
273.28 K, 154 kPa, Gas	0.01152
273.29 K, 89 kPa, Gas	0.01139
273.3 K, 112 kPa, Gas	0.01142
273.31 K, 73 kPa, Gas	0.01134
273.47 K, 172 kPa, Gas	0.01157
273.48 K, 166 kPa, Gas	0.0116
273.58 K, 119 kPa, Gas	0.01167
273.62 K, 94 kPa, Gas	0.01167
273.64 K, 84 kPa, Gas	0.01168
273.88 K, 163 kPa, Gas	0.0116
274 K, 118 kPa, Gas	0.01166
274.07 K, 93 kPa, Gas	0.01171
274.08 K, 78 kPa, Gas	0.01173
274.32 K, 160 kPa, Gas	0.01166
274.45 K, 116 kPa, Gas	0.01173
274.52 K, 92 kPa, Gas	0.01174
274.54 K, 77 kPa, Gas	0.01173
274.78 K, 158 kPa, Gas	0.01168
274.92 K, 115 kPa, Gas	0.01175
275.01 K, 91 kPa, Gas	0.01175
275.03 K, 75 kPa, Gas	0.01176
275.27 K, 155 kPa, Gas	0.01171
275.43 K, 113 kPa, Gas	0.01179
275.53 K, 90 kPa, Gas	0.0118
275.55 K, 73 kPa, Gas	0.01186
281.19 K, 491 kPa, Liquid	0.08061
281.19 K, 20251 kPa, Liquid	0.09143
281.22 K, 15223 kPa, Liquid	0.08878
281.25 K, 10286 kPa, Liquid	0.08621
281.25 K, 23293 kPa, Liquid	0.09262
281.26 K, 20239 kPa, Liquid	0.09104
281.27 K, 458 kPa, Liquid	0.08057
281.27 K, 5355 kPa, Liquid	0.08361
281.29 K, 15230 kPa, Liquid	0.0886
281.32 K, 10282 kPa, Liquid	0.08605
281.34 K, 5380 kPa, Liquid	0.08336
281.37 K, 102 kPa, Gas	0.01233
281.37 K, 144 kPa, Gas	0.01241
281.37 K, 199 kPa, Gas	0.01253
281.37 K, 244 kPa, Gas	0.01266
281.57 K, 23287 kPa, Liquid	0.09254
281.59 K, 243 kPa, Gas	0.01263
281.59 K, 20208 kPa, Liquid	0.09091
281.6 K, 199 kPa, Gas	0.01245
281.61 K, 101 kPa, Gas	0.01221
281.61 K, 142 kPa, Gas	0.0123

Liquid
Settings	thermal conductivity [W/m/K]
263.15 K	0.08688
273.15 K	0.08321
